Source: US10640534B2 (Agios Pharmaceuticals, Inc., priority 2012, dated 2020)

The compounds below were run on U87MG cells (assay: Cellular assay, inhibition of 2-HG production in U87MG cells). Conditions: Homo sapiens, U-87 MG, 48 h.
Format: cell-based
Procedure: Cells (HT1080 or U87MG) are grown in T125 flasks in DMEM containing 10% FBS, 1× penicillin/streptomycin and 500 ug/mL G418 (present in U87MG cells only). They are harvested by trypsin and seeded into 96 well white bottom plates at a density of 5000 cell/well in 100 ul/well in DMEM with 10% FBS. […] Cells are incubated overnight at 37° C. in 5% CO2. The next day test compounds are made up at 2× the final concentration and 100 ul are added to each cell well. The final concentration of DMSO is 0.2% and the DMSO control wells are plated in row G. The plates are then placed in the incubator for 48 hours. […] The cell plate is placed back in the incubator for another 24 hours. At 72 hours post compound addition, 10 mL/plate of Promega Cell Titer Glo reagent is thawed and mixed. The cell plate is removed from the incubator and allowed to equilibrate to room temperature. Then 100 ul of Promega Cell Titer Glo reagent is added to each well of media. The cell plate is then placed on an orbital shaker for 10 minutes and then allowed to sit at room temperature for 20 minutes. The plate is then read for luminescence with an integration time of 500 ms.
Compound `N#Cc1ccnc(N2C(=O)CC[C@H]2C(=O)N(c2cccc(OC(F)(F)F)c2)C(C(=O)NC2CC(F)(F)C2)c2ccccc2Cl)n1` (stereo partly drawn) [Compound 180, (2S)—N-(1-(2-Chlorophenyl)-2-((3,3-difluorocyclobutyl)amino)-2-oxoethyl)-1-(4-cyanopyrimidin-2-yl)-5-oxo-N-(3-(trifluoromethoxy)phenyl)pyrrolidine-2-carboxamide] has an IC50 of under 100 nM.
For `O=C(NC1CC(F)(F)C1)[C@H](c1ccccc1Cl)N(C(=O)[C@@H]1CCC(=O)N1c1ccc(F)cn1)c1cccc(F)c1` [Compound 29], the IC50 was under 100 nM.
In the case of `O=C(NC1CC(F)(F)C1)C(c1ccccc1Cl)N(C(=O)C1CCC(=O)N1c1cnccn1)c1cccc(F)c1` (centres unmarked) [Compound 18], the IC50 is reported as under 100 nM.
`CC(C)(C)OC(=O)N1CC(=O)N(c2nccc(C#N)n2)[C@H](C(=O)N(c2cc(F)cc(F)c2)[C@H](C(=O)NC2CCC(F)(F)CC2)c2ccccc2Cl)C1` [Compound 93, (S)-tert-Butyl 3-(((S)-1-(2-chlorophenyl)-2-((4,4-difluorocyclohexyl)amino)-2-oxoethyl)(3,5-difluorophenyl)carbamoyl)-4-(4-cyanopyrimidin-2-yl)-5-oxopiperazine-1-carboxylate] showed an IC50 of under 100 nM.
For `N#Cc1ccnc(N2C(=O)OC[C@H]2C(=O)N(c2cccc(F)c2)[C@H](C(=O)NC2CC(F)(F)C2)c2ccccc2Cl)c1` [Compound 77, (S)—N—((S)-1-(2-Chlorophenyl)-2-(3,3-difluorocyclobutylamino)-2-oxoethyl)-3-(4-cyanopyridin-2-yl)-N-(3-fluorophenyl)-2-oxooxazolidine-4-carboxamide], the IC50 was under 100 nM.
For `CC(C)(C)OC(=O)N1CC(=O)N(c2cc(C#N)ccn2)[C@H](C(=O)N(c2cccc(F)c2)[C@H](C(=O)NC2CC(F)(F)C2)c2ccccc2Cl)C1` [Compound 89, (3S)-tert-Butyl 3-((1-(2-chlorophenyl)-2-((3,3-difluorocyclobutyl)amino)-2-oxoethyl)(3-fluorophenyl)carbamoyl)-4-(4-cyanopyridin-2-yl)-5-oxopiperazine-1-carboxylate], the IC50 was under 100 nM.
`N#Cc1ccnc(N2C(=O)CC[C@H]2C(=O)N(c2cccc(F)c2)[C@H](C(=O)NC2CC(F)(F)C2)c2ccccc2F)c1` [Compound 149, (S)-1-(4-Cyanopyridin-2-yl)-N—((S)-2-((3,3-difluorocyclobutyl)amino)-1-(2-fluorophenyl)-2-oxoethyl)-N-(3-fluorophenyl)-5-oxopyrrolidine-2-carboxamide] showed an IC50 of under 100 nM.
Work on `CC(C)(O)c1cc(F)cc(N(C(=O)[C@@H]2COC(=O)N2c2cc(C#N)ccn2)C(C(=O)NC2CC(F)(F)C2)c2ccccc2Cl)c1` (stereo partly drawn) [Compound 145, (4S)—N-(1-(2-Chlorophenyl)-2-(3,3-difluorocyclobutylamino)-2-oxoethyl)-3-(4-cyanopyridin-2-yl)-N-(3-fluoro-5-(2-hydroxypropan-2-yl)phenyl)-2-oxooxazolidine-4-carboxamide] yielded an IC50 of under 100 nM.
`N#Cc1ccnc(N2C(=O)CC[C@H]2C(=O)N(c2cncc(F)c2)[C@H](C(=O)NC2CC(F)(F)C2)c2ccccc2)c1` [Compound 147, (S)-1-(4-Cyanopyridin-2-yl)-N—((S)-2-((3,3-difluorocyclobutyl)amino)-2-oxo-1-phenylethyl)-N-(5-fluoropyridin-3-yl)-5-oxopyrrolidine-2-carboxamide] was tested, and the IC50 was under 100 nM.
`CCOC(=O)CN1C[C@@H](C(=O)N(c2cccc(F)c2)C(C(=O)NC2CC(F)(F)C2)c2ccccc2Cl)N(c2cc(C#N)ccn2)C1=O` (stereo partly drawn) [Compound 94, Ethyl 2-((4S)-4-((1-(2-chlorophenyl)-2-((3,3-difluorocyclobutyl)amino)-2-oxoethyl)(3-fluorophenyl)carbamoyl)-3-(4-cyanopyridin-2-yl)-2-oxoimidazolidin-1-yl)acetate] was tested, and the IC50 was under 100 nM.
With `N#Cc1ccnc(N2C(=O)[C@H](O)C[C@H]2C(=O)N(c2cccc(F)c2)[C@@H](C(=O)NC2CCC(F)(F)CC2)c2ccccc2Cl)n1` [Compound 122, (2S,4R)—N—((R)-1-(2-Chlorophenyl)-2-((4,4-difluorocyclohexyl)amino)-2-oxoethyl)-1-(4-cyanopyrimidin-2-yl)-N-(3-fluorophenyl)-4-hydroxy-5-oxopyrrolidine-2-carboxamide] the IC50 was 100 to 500 nM.
Work on `N#Cc1ccnc(N2C(=O)CC[C@H]2C(=O)N(c2ccccc2F)[C@H](C(=O)NC2CC(F)(F)C2)c2ccccc2Cl)c1` [Compound 187, (S)—N—((S)-1-(2-Chlorophenyl)-2-((3,3-difluorocyclobutyl)amino)-2-oxoethyl)-1-(4-cyanopyridin-2-yl)-N-(2-fluorophenyl)-5-oxopyrrolidine-2-carboxamide] yielded an IC50 of under 100 nM.
Compound `N#Cc1ccnc(N2C(=O)NC[C@H]2C(=O)N(c2cccc(F)c2)[C@H](C(=O)NC2CC(F)(F)C2)c2ccccc2Cl)c1` [Compound 80, (S)—N—((S)-1-(2-chlorophenyl)-2-(3,3-difluorocyclobutylamino)-2-oxoethyl)-3-(4-cyanopyridin-2-yl)-N-(3-fluorophenyl)-2-oxoimidazolidine-4-carboxamide] has an IC50 of under 100 nM.
In the case of `N#Cc1cc(F)cc(N(C(=O)[C@@H]2CCC(=O)N2c2cc(C#N)ccn2)[C@H](C(=O)NC2CCC(F)(F)CC2)c2ccccc2Cl)c1` [Compound 184, (S)—N—((S)-1-(2-Chlorophenyl)-2-(4,4-difluorocyclohexylamino)-2-oxoethyl)-N-(3-cyano-5-fluorophenyl)-1-(4-cyanopyridin-2-yl)-5-oxopyrrolidine-2-carboxamide], the IC50 is reported as under 100 nM.
Compound `CC(C)(O)c1cc(F)cc(N(C(=O)[C@@H]2CCC(=O)N2c2cc(C#N)ccn2)[C@H](C(=O)NC2CC(F)(F)C2)c2ccccc2Cl)c1` [Compound 150, (S)—N—((S)-1-(2-Chlorophenyl)-2-(3,3-difluorocyclobutylamino)-2-oxoethyl)-1-(4-cyanopyridin-2-yl)-N-(3-fluoro-5-(2-hydroxypropan-2-yl)phenyl)-5-oxopyrrolidine-2-carboxamide] has an IC50 of under 100 nM.
With `N#Cc1ccnc(N2C(=O)[C@@H](O)C[C@H]2C(=O)N(c2cccc(F)c2)[C@H](C(=O)NC2CCC(F)(F)CC2)c2ccccc2Cl)c1` [Compound 172, (2S,4S)—N—((S)-1-(2-Chlorophenyl)-2-((4,4-difluorocyclohexyl)amino)-2-oxoethyl)-1-(4-cyano-pyridin-2-yl)-N-(3-fluorophenyl)-4-hydroxy-5-oxopyrrolidine-2-carboxamide] the IC50 was under 100 nM.
Compound `N#Cc1ccnc(N2C(=O)CC[C@H]2C(=O)N(c2cccc(C3(O)CC3)c2)[C@H](C(=O)NC2CC(F)(F)C2)c2ccccc2Cl)c1` [Compound 140, (S)—N—((S)-1-(2-Chlorophenyl)-2-(3,3-difluorocyclobutylamino)-2-oxoethyl)-1-(4-cyanopyridin-2-yl)-N-(3-(1-hydroxycyclopropyl)phenyl)-5-oxopyrrolidine-2-carboxamide] has an IC50 of under 100 nM.
With `N#Cc1ccnc(N2C(=O)CC[C@H]2C(=O)N(c2cc(F)cc(F)c2)[C@H](C(=O)NC2CC(F)(F)C2)c2ccccc2Cl)c1F` [Compound 88, (S)—N—((S)-1-(2-Chlorophenyl)-2-((3,3-difluorocyclobutyl)amino)-2-oxoethyl)-1-(4-cyano-3-fluoropyridin-2-yl)-N-(3,5-difluorophenyl)-5-oxopyrrolidine-2-carboxamide] the IC50 was under 100 nM.
`CN1C[C@@H](C(=O)N(c2cccc(F)c2)C(C(=O)NC2CC(F)(F)C2)c2ccccc2Cl)N(c2cc(C#N)ccn2)C1=O` (stereo partly drawn) [Compound 79, (4S)—N-(1-(2-chlorophenyl)-2-((3,3-difluorocyclobutyl)amino)-2-oxoethyl)-3-(4-cyanopyridin-2-yl)-N-(3-fluorophenyl)-1-methyl-2-oxoimidazolidine-4-carboxamide] showed an IC50 of under 100 nM.
`N#Cc1cccc(N(C(=O)[C@@H]2CCC(=O)N2c2nccc(C#N)n2)[C@H](C(=O)NC2CC(F)(F)C2)c2ccccc2Cl)c1` [Compound 167, (S)—N—((S)-1-(2-Chlorophenyl)-2-((3,3-difluorocyclobutyl)amino)-2-oxoethyl)-N-(3-cyanophenyl)-1-(4-cyanopyrimidin-2-yl)-5-oxopyrrolidine-2-carboxamide] was tested, and the IC50 was under 100 nM.
For `N#Cc1ccnc(N2C(=O)CC[C@H]2C(=O)N(c2cccc(F)c2)[C@H](C(=O)NC2CCC(F)(F)CC2)c2ccccc2Cl)n1` [Compound 85, (S)—N—((S)-1-(2-Chlorophenyl)-2-((4,4-difluorocyclohexyl)amino)-2-oxoethyl)-1-(4-cyanopyrimidin-2-yl)-N-(3-fluorophenyl)-5-oxopyrrolidine-2-carboxamide], the IC50 was under 100 nM.
Compound `O=C(NC1CC(F)(F)C1)[C@H](c1ccccc1Cl)N(C(=O)[C@@H]1COC(=O)N1c1ncccn1)c1cccc(F)c1` [Compound 9, (S)—N—((S)-1-(2-chloro-phenyl)-2-(3,3-difluorocyclo-butylamino)-2-oxoethyl)-N-(3-fluorophenyl)-2-oxo-3-(pyrimidin-2-yl)oxazolidine-4-carboxamide] has an IC50 of under 100 nM.
In the case of `N#Cc1ccnc(N2C(=O)[C@H](O)C[C@H]2C(=O)N(c2cc(F)cc(F)c2)[C@H](C(=O)NC2CCC(F)(F)CC2)c2ccccc2Cl)n1` [Compound 127, (2S,4R)—N—((S)-1-(2-Chlorophenyl)-2-(4,4-difluorocyclohexylamino)-2-oxoethyl)-1-(4-cyanopyrimidin-2-yl)-N-(3,5-difluorophenyl)-4-hydroxy-5-oxopyrrolidine-2-carboxamide], the IC50 is reported as under 100 nM.
